Measurements published in US6949381B2, “Immortalized human skin cell lines and novel serum-free medium useful for the production thereof” (Nestec S.A., priority 1995, dated 2005).

Columns and labels:
Format in all cases: cell-based, Human
collagenase (type I) = experiment: Collagenase (type I) expression after phorbol ester treatment; conditions: immortalized keratinocytes treated with phorbol esters
normal keratinocytes = experiment: Keratinocyte growth in serum-free media (cell count, FIG. 1); conditions: serum free medium
Description: FIG. 1 compares the growth (in terms of cell number) of non-immortalized DKO-NR keratinocytes in three different media, i.e., NR-3, epinephrine-supplemented modified MCDB 153 and MCDB 153 after 6 days.
• 1) Characterization of Keratinocytes Growth in Serum-free Media: primary cell cultures were cultivated in modified MCDB 153 [Boyce et al., J. Tissue Cult. Meth., 9:83-93 (1985); and Pittlekow et al., J. Invest. Dermatol., 86:410-417, 1986] and NR-3 media.
FIG. 1 comprises cell growth in NR-3 and epinephrine-supplemented modified MCDB 153 (keratinocyte growth medium) after 6 days. The modified MCDB 153 medium refers to modified MCDB 153. Keratinocytes were harvested in trypsin/EDTA (0.05%/0.01%) and counted by using a hemocytometer. […] In particular, the results shown in Table 2 compare the growth of keratinocytes in coated and uncoated culture plates. 100,000 keratinocytes were seeded on 3.5 cm plates containing NR-3 medium.

[1] = tested on: melanocytes (DM2-NR, normal); experiment: Induction/inhibition of melanin synthesis in melanocytes; conditions: T-Ag expressing melanocyte lines (especially DM2-NR), comparable to normal cells
Description: The melanocytes were treated with the melanogensis inducers tyrosin and theophylline and the melanogenesis inhibitor kojic acid.

Compound	induction/inhibition of melanogenesis [1]	further results
CCCCCCCCCCCCCC(=O)O[C@@H]1[C@@H](C)[C@@]2(O)[C@@H](C=C(CO)C[C@]3(O)C(=O)C(C)=C[C@@H]23)[C@@H]2C(C)(C)[C@]12OC(C)=O [PMA, phorbol-12-myristate-13-acetate]		collagenase (type I) expression (collagenase (type I)): increase of collagenase (type I) expression
CNC[C@H](O)c1ccc(O)c(O)c1 [epinephrine]		growth of normal keratinocytes (normal keratinocytes): strong growth factor of normal keratinocytes
O=c1cc(CO)occ1O [kojic acid]	dose dependent	
Cn1c(=O)c2[nH]cnc2n(C)c1=O [theophylline]	dose dependent	
N[C@@H](Cc1ccc(O)cc1)C(=O)O [tyrosin]	dose dependent	
